Experiments:
Format in all cases: cell-based
U87MG cells [1] = assay: Colony formation assay (crystal violet)
Procedure: (§1) Cell culture and drug treatments. Cell lines were obtained from ATCC (American Type Culture Collection, Manassas, VA) and grown under standard conditions (5% CO2, 10% FBS (fetal bovine serum), with 5% antifungal/antibacterial). Cell lines were tested for Mycoplasma using the MycoAlert Mycoplasma Detection Kit (Lonza, Basel Switzerland, cat: LT07-218); all experiments were done with mycoplasma negative cells. U87MG cells were propagated in MEM (Minimal Essential Medium). BT549 and DBTRG cells were propagated in RPMI (Roswell Park Memorial Institute 1640 Medium). LN18, U118MG, A172 and LN229 cells were propagated in DMEM (Dulbecco's Modified Eagle Medium). Neurosphere/cancer stem cell cultures for U87MG and BT549 cell lines were plated with 40,000 cells per mL in 3D Tumorsphere Medium XF (Sigma cat: C-28070, Burlington, MA). BT549 cancer stem cell cultures were supplemented with 1XB27 XenoFree CTS (Gibco/Thermo Fisher Waltham, MA, USA). AS1842856 was purchased from Calbiochem (Danvers, MA) and utilized at 200 nM, 500 nM and 1 μM final concentrations as indicated. AS1708727 was purchased from MedChem Express (Monmouth Junction, NJ) and was used at 0.5 μM, 1.0 µM and 2.0 μM concentrations. 5-aza-2′-deoxycytidine (5-AZA) was purchased from Millipore/Sigma (Burlington, MA) and utilized at a final concentration of 3 μM. Cells were plated at a density of 2,700 cells per mL and were treated five days with indicated drug. Treatments were investigated in triplicate (in numerous independent experiments) and stained with crystal violet. Plates were aspirated of media then each well was washed with 1.0 mL of 1x phosphate buffered saline (PBS) once before being stained with 1.0 mL of crystal violet stain (0.5% crystal violet in buffered formalin) and incubated for 15 minutes. The stain was aspirated, and wells were washed 3 times with 0.5 mL of 1x PBS. After collections were completed, crystal violet-stained plates were solubilized using 0.5 mL on each well of 10% acetic acid and placed on shaker for 1 hour. Solubilized samples were transferred to 96 well plates and quantified on a spectrophotometer at 590 nm. Quantified plates were analyzed with a Tukey test. Error bars were added using the standard deviation. Cells were plated at 2,700 cells per mL and were treated five days with the indicated drug. Treatments were investigated in triplicate (in numerous independent experiments) and stained with crystal violet. Plates were aspirated of media, then each well was washed with 1.0 mL of 1× phosphate-buffered saline (PBS) once before being stained with 1.0 mL of crystal violet stain (0.5% crystal violet in buffered formalin) and incubated for 15 minutes. The stain was aspirated, and cells were washed three times with 0.5 mL of 1×PBS. After collections were completed, crystal violet-stained plates were solubilized using 0.5 mL on each well of 10% acetic acid and placed on a shaker for 1 hour. Solubilized samples were transferred to 96 well plates and quantified on a spectrophotometer at 590 nm using iMark Microplate Absorbance Reader (Bio-Rad, Hercules, CA). Quantified plates were analyzed with a Tukey Test. Error bars were added using the standard deviation.

SW480 = assay: Colony formation assay (crystal violet); conditions: treated five days
Procedure: [The procedure below names another cell line; the source lists this cell line under the same test.] as §1

LN229 [2] = assay: Colony formation assay (crystal violet); conditions: treated five days
Procedure: as §1

BT549 = assay: Colony formation assay (crystal violet); conditions: treated five days
Procedure: as §1

DBTRG [3] = assay: Colony formation assay (crystal violet); conditions: treated five days
Procedure: as §1

BT549 cells = assay: Propidium iodide / FITC-Annexin V flow cytometry; conditions: 1 μM, 48 hours
Procedure: (§2) FIGS. 3A-3D: FOXO1 Inhibitor Treatment led to Apoptosis. (FIGS. 3A-3C) LN229 and BT549 cells were treated with 1 μM AS1842856 and were stained with propidium iodide and FITC-Annexin V followed by flow cytometric analyses. […] (FIG. 3D) Western blot analyses were performed with BT549 and LN229 samples that were treated with AS1842856. Both cell lines had increased caspase 3 cleavage.
(§3) FOXO1 inhibition led to apoptosis induction based on Caspase 3 cleavage and flow cytometric analyses. To clarify the impact of FOXO1 on BBC and GBM cell viability, BT549 and LN229 cells were treated with AS1842856 for 48 and 72 hours respectively.

LN229 cells = assay: Propidium iodide / FITC-Annexin V flow cytometry; conditions: 1 μM, 72 hours
Procedure: as §2, §3

LN18 = assay: Gene expression by qRT-PCR (TUBB reference); conditions: 1 μM for 48 hours
Procedure: (§4) Cell culture and drug treatments. Cell lines were obtained from ATCC (American Type Culture Collection, Manassas, VA) and grown under standard conditions (5% CO2, 10% FBS (fetal bovine serum), with 5% antifungal/antibacterial). Cell lines were tested for Mycoplasma using the MycoAlert Mycoplasma Detection Kit (Lonza, Basel Switzerland, cat: LT07-218); all experiments were done with mycoplasma negative cells. U87MG cells were propagated in MEM (Minimal Essential Medium). BT549 and DBTRG cells were propagated in RPMI (Roswell Park Memorial Institute 1640 Medium). LN18, U118MG, A172 and LN229 cells were propagated in DMEM (Dulbecco's Modified Eagle Medium). Neurosphere/cancer stem cell cultures for U87MG and BT549 cell lines were plated with 40,000 cells per mL in 3D Tumorsphere Medium XF (Sigma cat: C-28070, Burlington, MA). BT549 cancer stem cell cultures were supplemented with 1XB27 XenoFree CTS (Gibco/Thermo Fisher Waltham, MA, USA). AS1842856 was purchased from Calbiochem (Danvers, MA) and utilized at 200 nM, 500 nM and 1 μM final concentrations as indicated. AS1708727 was purchased from MedChem Express (Monmouth Junction, NJ) and was used at 0.5 μM, 1.0 µM and 2.0 μM concentrations. 5-aza-2′-deoxycytidine (5-AZA) was purchased from Millipore/Sigma (Burlington, MA) and utilized at a final concentration of 3 μM. Total RNA was prepared using the Qiagen RNeasy kit (Hilden, Germany), which was then used to generate cDNA using Superscript Reverse Transcriptase II (Invitrogen, Carlsbad, CA). Samples (cDNAs) were analyzed using (Power SYBR Green Master Mix, Applied Biosystems, Foster City, CA) and the ABI Step-One Real-time system (Carlsbad, CA). Expression levels were normalized to Beta-Tubulin, TUBB in gene expression experiments and calculated using 2-4ACT method (Livak et al., 2001). Primer sequences are detailed in Table 1.

U87MG cells [4] = assay: Gene expression by qRT-PCR (TUBB reference)
Procedure: as §4

LN229 [5] = assay: Gene expression by qRT-PCR (TUBB reference); conditions: 1 μM for 48 hours
Procedure: as §4

DBTRG [6] = assay: Gene expression by qRT-PCR (TUBB reference); conditions: 1 μM for 48 hours
Procedure: as §4

A172 = assay: Gene expression by qRT-PCR (TUBB reference); conditions: 1 μM for 48 hours
Procedure: as §4

HCT116 = assay: Colony formation assay (crystal violet); conditions: treated five days

For `CCn1cc(C(=O)O)c(=O)c2c(N)c(F)c(NC3CCCCC3)cc21` [AS1842856, 5-Amino-7-(cyclohexylamino)-1-ethyl-6-fluoro-4-oxo-1,4-dihydroquinoline-3-carboxylic acid], the colony number (U87MG cells [1]) was “colony number was not significantly impacted”, the colony formation (SW480) was “Significantly reduced colony formation” and the colony formation (LN229 [2]) was “fewer cells with 200 nM drug treatment with further reductions using 500 nM and 1 μM drug”. The colony formation (BT549) was “fewer cells with 200 nM drug treatment with further reductions using 500 nM and 1 μM drug”, the colony formation (DBTRG [3]) was “fewer cells with 200 nM drug treatment with further reductions using 500 nM and 1 μM drug” and the “Annexin V-FITC and/or PI staining (indicators of apoptosis)” value (BT549 cells) was “positive for Annexin V-FITC and/or PI”. The “Annexin V-FITC and/or PI staining (indicators of apoptosis)” value (LN229 cells) was “positive for Annexin V-FITC and/or PI”, the “apoptotic genes FAS and/or BIM expression” value (LN18) was “induced apoptotic genes FAS and/or BIM” and the FAS expression (U87MG cells [4]) was “induced”. For the same compound, the “apoptotic genes FAS and/or BIM expression” value (U87MG cells [4]; 1 μM for 48 hours) was “induced apoptotic genes FAS and/or BIM”, the “apoptotic genes FAS and/or BIM expression” value (LN229 [5]) was “induced apoptotic genes FAS and/or BIM” and the “apoptotic genes FAS and/or BIM expression” value (DBTRG [6]) was “induced apoptotic genes FAS and/or BIM”. For the same compound, the “apoptotic genes FAS and/or BIM expression” value (A172) was “induced apoptotic genes FAS and/or BIM” and the colony formation (HCT116) was “Significantly reduced colony formation”.
